In patent US20030134863A1, “Preventives/remedies for alzheimer's disease” (priority 2000, published 2003):
“Also recorded” adds a separate entry of the source.

Tests used:
blood LH = assay: Suppression of blood LH in castrated monkeys; type: in vivo, cynomolgus monkeys (Macaca fascicularis); conditions: castrated male cynomolgus monkeys
From the text: Suppression of blood LH in castrated monkeys
5-(N-Benzyl-N-methylaminomethyl)-1-(2,6-difluorobenzyl)-6-[4-(3-methoxyureido)phenyl]-3-phenythieno[2,3-d]pyrimidine-2,4(1H,3H)-dione hydrochloride was orally administered to castrated male cynomolgus monkeys (Macaca fascicularis), and blood LH was quantified. The male cynomolgus monkeys, used at 4 years 9 months to 6 years 3 months of age at time of experimentation, had been castrated more than 3 months prior to the examination. Test animals [n=3] were given 30 mg/kg (3 ml/kg) of 5-(N-benzyl-N-methylaminomethyl)-1-(2,6-difluorobenzyl)-6-[4-(3-methoxyureido)phenyl]-3-phenylthieno[2,3-d]pyrimidine-2,4(1H,3H)-dione hydrochloride suspended in 0.5% methylcellulose at a final concentration of 1% by oral administration, and control test animals [n=2] were given 3 ml/kg of the 0.5% methylcellulose dispersant alone by oral administration. At 24 hours and immediately before administration and at 2, 4, 6, 8, 24, and 48 hours after administration, blood was collected for heparinized plasma samples via the femoral vein and immediately stored under freezing conditions.
Plasma LH concentrations were determined by a bioassay using mouse testicular cells. The testicular cells were collected from male BALB/c mice (8 to 9 weeks of age) and washed three times with 1 ml of Dulbecco's modified Eagle medium (DMEM-H) containing 20 mM HEPES and 0.2% BSA per testis. After incubation at 37° C. for 1 hour, the cells were passed through a nylon mesh (70 μm) and dispensed at 8×10^5 cells/tube. After the cells were washed twice with 0.4 ml of DMEM-H, 0.4 ml of a DMEM-H solution containing either equine LH (Sigma), as the standard LH, or monkey plasma, finally diluted up to 300 fold, as the test sample, was added, followed by a reaction at 37° C. for 2 hours. The testosterone concentration in the culture supernatant was determined by a radioimmunoassay (CIS Diagnostics), and the LH concentration in the test monkey plasma was calculated from the standard curve for the standard equine LH. […]

LH, FSH concentrations = conditions: patients of Alzheimer's disease, clinical test; cited from earlier work

Row | Structure (SMILES) | blood LH concentration relative to the value immediately before administration (blood LH; 30 mg/kg oral in 0.5% methylcellulose, in 24 hours after administration, n=3) [%] | blood LH concentration at 48 hours after administration (blood LH; 30 mg/kg oral, 48 hours after administration) | effect on blood LH concentration (in words) (blood LH; 30 mg/kg oral, hydrochloride, 30 mg/kg) | LH, FSH concentrations (LH, FSH concentrations) | progress of Alzheimer's disease (LH, FSH concentrations)
1 | CONC(=O)Nc1ccc(-c2sc3c(c2CN(C)Cc2ccccc2)c(=O)n(-c2ccccc2)c(=O)n3Cc2c(F)cccc2F)cc1.Cl [5-(N-benzyl-N-methylaminomethyl)-1-(2,6-difluorobenzyl)-6-[4-(3-methoxyureido)phenyl]-3-phenylthieno[2,3-d]pyrimidine-2,4(1H,3H)-dione hydrochloride] | ≤ 20 | re-elevation of the blood LH concentration was noted | rapid fall beginning immediately after administration; also recorded: significant decreasing effect on blood LH concentration | – | –
2 | CCNC(=O)[C@@H]1CCCN1C(=O)[C@H](CCCNC(=N)N)NC(=O)[C@H](CC(C)C)NC(=O)[C@@H](CC(C)C)NC(=O)[C@H](Cc1ccc(O)cc1)NC(=O)[C@H](CO)NC(=O)[C@H](Cc1c[nH]c2ccccc12)NC(=O)[C@H](Cc1c[nH]cn1)NC(=O)[C@@H]1CCC(=O)N1 [Leuplin] | – | – | – | lowers the LH, FSH concentrations | inhibits the progress of Alzheimer's disease
